# Data as given in ChEMBL document CHEMBL1147585, “Potent imidazole and triazole CB1 receptor antagonists related to SR141716” (Bioorg Med Chem Lett, 2004).
# Target: T1, Cannabinoid receptor 1 (Homo sapiens, UniProt P21554)
# Assay: Evaluated for binding affinity towards human Cannabinoid receptor 1 at a concentration of 20 uM
# T1 sequence (P21554 whole entry): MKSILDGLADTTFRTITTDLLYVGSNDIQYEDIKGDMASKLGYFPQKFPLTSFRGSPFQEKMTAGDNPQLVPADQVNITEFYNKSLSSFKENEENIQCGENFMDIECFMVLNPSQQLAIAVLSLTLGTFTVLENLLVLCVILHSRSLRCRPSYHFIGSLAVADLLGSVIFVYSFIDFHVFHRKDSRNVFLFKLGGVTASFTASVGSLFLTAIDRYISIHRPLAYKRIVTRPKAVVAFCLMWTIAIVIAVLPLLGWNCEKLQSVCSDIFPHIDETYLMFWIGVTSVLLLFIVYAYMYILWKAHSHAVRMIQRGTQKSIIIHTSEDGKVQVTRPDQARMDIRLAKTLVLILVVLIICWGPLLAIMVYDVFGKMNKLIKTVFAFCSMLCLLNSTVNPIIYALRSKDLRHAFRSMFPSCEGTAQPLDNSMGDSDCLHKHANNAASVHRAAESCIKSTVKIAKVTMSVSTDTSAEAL
row,Compound,inhibition [%]
1,Cc1c(C(=O)NCCN(C)C)nn(-c2ccc(Cl)cc2Cl)c1-c1ccc(Cl)cc1,70
2,O=C(NN1CCCCCC1)c1nc(-c2ccc(Cl)cc2)n(-c2ccc(Cl)cc2Cl)n1,43

# More lines, now with the values ahead:
row,inhibition [%],Compound
1,69,Cc1c(C(=O)NCCO)nn(-c2ccc(Cl)cc2Cl)c1-c1ccc(Cl)cc1
2,49,CN(C)CCNC(=O)c1nc(-c2ccc(Cl)cc2Cl)n(-c2ccc(Cl)cc2)n1
3,48,CN(C)CCNC(=O)c1cn(-c2ccc(Cl)cc2)c(-c2ccc(Cl)cc2Cl)n1

# Target: T1, Cannabinoid receptor 1
# Assay: Evaluated for binding affinity towards human Cannabinoid receptor 1
row,Compound,Ki [nM]
1,Cc1c(C(=O)N(C)C2CCCCC2)nn(-c2ccc(Cl)cc2Cl)c1-c1ccc(Cl)cc1,100
2,Cc1c(C(=O)Nc2ccncc2)nn(-c2ccc(Cl)cc2Cl)c1-c1ccc(Cl)cc1,85
3,O=C(NN1CC2CCCC2C1)c1nc(-c2ccc(Cl)cc2Cl)n(-c2ccc(Cl)cc2)c1Br (configuration not stated),11
4,CC(NC(=O)c1nc(-c2ccc(Cl)cc2Cl)n(-c2ccc(Cl)cc2)n1)c1ccc(Cl)cc1 (configuration not stated),66
5,Cc1c(C(=O)NN2CCCCCC2)nn(-c2ccc(Cl)cc2Cl)c1-c1ccc(Cl)cc1,14
6,Cc1c(C(=O)NCCc2ccc(F)cc2)nn(-c2ccc(Cl)cc2Cl)c1-c1ccc(Cl)cc1,91
7,COc1cc(Cl)ccc1-c1nc(C(=O)NN2CC3CCCC3C2)nn1-c1ccc(Cl)cc1Cl (configuration not stated),270
8,Cc1c(C(=O)NN2CC3CCCC3C2)nn(-c2ccc(Cl)cc2Cl)c1-c1ccc(Cl)cc1 (configuration not stated),5
9,N#Cc1c(C(=O)NN2CC3CCCC3C2)nc(-c2ccc(Cl)cc2Cl)n1-c1ccc(Cl)cc1 (configuration not stated),9
10,CC1CCC(NC(=O)c2nc(-c3ccc(Cl)cc3Cl)n(-c3ccc(Cl)cc3)n2)CC1 (configuration not stated),94
11,O=C(NN1CCCCCC1)c1cn(-c2ccc(Cl)cc2)c(-c2ccc(Cl)cc2Cl)n1,78
12,O=C(NN1CC2CCCC2C1)c1nc(-c2ccc(Cl)cc2Cl)n(-c2ccc(Cl)cc2)n1 (configuration not stated),137
13,O=C(NC1CCCCC1)c1cn(-c2ccc(Cl)cc2)c(-c2ccc(Cl)cc2Cl)n1,48

# The remaining lines, values ahead:
row,Ki [nM],Compound
1,29,O=C(NC1CCN(Cc2ccccc2)C1)c1nc(-c2ccc(Cl)cc2Cl)n(-c2ccc(Cl)cc2)n1 (configuration not stated)
2,101,O=C(NC1CCc2ccccc21)c1nc(-c2ccc(Cl)cc2Cl)n(-c2ccc(Cl)cc2)n1 (configuration not stated)
3,33,Cc1c(C(=O)NC(C)c2ccc(Cl)cc2)nc(-c2ccc(Cl)cc2Cl)n1-c1ccc(Cl)cc1 (configuration not stated)
4,41,Cc1c(C(=O)NC(C)C(C)C)nn(-c2ccc(Cl)cc2Cl)c1-c1ccc(Cl)cc1 (configuration not stated)
5,32,O=C(c1nc(-c2ccc(Cl)cc2)n(-c2ccc(Cl)cc2Cl)n1)N1CCN(c2cccc(C(F)(F)F)c2)CC1
6,85,O=C(NN1CCCCC1)c1cn(-c2ccc(Cl)cc2)c(-c2ccc(Cl)cc2Cl)n1
7,66,O=C(NN1CC2CCCC2C1)c1cn(-c2ccc(Cl)cc2)c(-c2ccc(Cl)cc2Cl)n1 (configuration not stated)
8,770,C#Cc1c(C(=O)NN2CC3CCCC3C2)nc(-c2ccc(Cl)cc2Cl)n1-c1ccc(Cl)cc1 (configuration not stated)
9,42,Cc1c(C(=O)NC2CCCCC2)nn(-c2ccc(Cl)cc2Cl)c1-c1ccc(Cl)cc1
